Columns and labels:
P2X7R [1] = molecular target: T1, P2X7R (Rattus norvegicus, UniProt Q64663); settings: concentrations of 10 to 300 μM; cited from earlier work
T1 sequence (Q64663 1-595): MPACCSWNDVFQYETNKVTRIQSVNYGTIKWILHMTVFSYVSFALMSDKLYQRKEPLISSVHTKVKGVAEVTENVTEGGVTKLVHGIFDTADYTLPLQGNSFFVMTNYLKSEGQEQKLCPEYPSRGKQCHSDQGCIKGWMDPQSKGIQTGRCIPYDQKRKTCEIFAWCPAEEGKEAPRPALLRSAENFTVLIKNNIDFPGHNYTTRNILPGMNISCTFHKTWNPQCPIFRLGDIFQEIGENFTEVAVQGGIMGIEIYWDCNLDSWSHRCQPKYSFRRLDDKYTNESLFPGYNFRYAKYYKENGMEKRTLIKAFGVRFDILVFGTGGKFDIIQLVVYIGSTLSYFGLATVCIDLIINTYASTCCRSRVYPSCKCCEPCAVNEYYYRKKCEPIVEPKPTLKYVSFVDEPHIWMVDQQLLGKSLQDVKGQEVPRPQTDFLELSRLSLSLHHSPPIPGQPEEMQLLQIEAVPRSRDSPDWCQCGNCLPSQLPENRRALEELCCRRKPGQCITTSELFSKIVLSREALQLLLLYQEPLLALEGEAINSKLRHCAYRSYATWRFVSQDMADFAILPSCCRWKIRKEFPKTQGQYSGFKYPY

human P2X7R = molecular target: T2, human P2X7R (Homo sapiens, UniProt Q99572); test: Calcium entry in HT-22 cells overexpressing human P2X7R (Fluo-4 AM); assay type: cell-based; settings: 20 μM BzATP or 50 μM tenidap
T2 construct: expressed in transfected cells
T2 sequence (Q99572 1-595): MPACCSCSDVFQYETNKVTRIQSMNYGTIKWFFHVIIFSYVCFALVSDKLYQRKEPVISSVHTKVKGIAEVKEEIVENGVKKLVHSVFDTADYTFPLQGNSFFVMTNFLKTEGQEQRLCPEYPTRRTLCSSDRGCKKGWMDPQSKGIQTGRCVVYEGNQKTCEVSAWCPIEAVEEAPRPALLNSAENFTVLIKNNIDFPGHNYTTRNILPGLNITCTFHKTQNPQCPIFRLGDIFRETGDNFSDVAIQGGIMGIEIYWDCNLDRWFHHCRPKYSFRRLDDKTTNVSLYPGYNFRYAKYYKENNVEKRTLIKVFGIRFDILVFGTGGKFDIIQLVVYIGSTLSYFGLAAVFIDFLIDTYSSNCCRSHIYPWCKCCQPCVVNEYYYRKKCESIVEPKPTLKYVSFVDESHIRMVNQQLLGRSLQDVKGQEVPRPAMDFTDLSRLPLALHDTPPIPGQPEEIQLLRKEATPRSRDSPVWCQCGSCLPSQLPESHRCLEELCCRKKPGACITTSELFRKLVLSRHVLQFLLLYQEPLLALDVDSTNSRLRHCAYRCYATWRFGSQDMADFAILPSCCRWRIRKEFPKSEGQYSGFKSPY
Text: Yet another method for identifying P2X7R agonists was devised by generating a immortalised mouse cell line that overexpresses the human P2X7R gene under the control of the human cytomegalovirus (CMV) early promoter/enhancer region. The human P2X7R cDNA was inserted into the pcDNA3.1 vector (Invitrogen) and transfected into the mouse hippocampal cell line HT-22 using Lipofectamine (Invitrogen) according to the manufacturer's specifications. One day after transfection, culture medium containing 500 μg/ml G418 was added to the cells. Resistant clones were separately isolated and cultured 14 days after applying the selection medium.
The agonistic activity of a compound was evaluated by measuring calcium entry in the cells that overexpress the human P2X7R. Cells were cultured in 96 well plates and incubated at 37° C. with 5% C02 DMEM with 10% foetal calf serum (Gibco) until they reached confluence. Cells were then loaded for one hour with 10 μM of Fluo4 AM (Molecular Probes). Fluo-4 AM is a fluorescent dye that binds to intracellular calcium. […] Agonist activity was detected by measuring an increase in calcium influx which results in increased binding to Fluo4 AM and increased fluorescence. Changes in fluorescence signal are measured using a Fluostar Optima plate reader (BMG biotech). […] Thus, both compound stimulated the activity of P2X7R which results in an influx of ions into the cells.

P2X7R [2] = assay type: in vivo, mouse
Protocol: The brains from stress-free mice were shock frozen, cut into 16 μm slices and fixed with paraformaldehyde for 5 minutes. The sections were blocked for 30 minutes at room temperature with 1:10 horse serum. All antibodies were diluted in TBST buffer (Tris-buffered saline with 0.05% Tween-20). The first antibody was used in a dilution 1:200 and incubated overnight. All washes were performed with TBST buffer. As a secondary antibody, an anti-goat IgG biotinylated (Vector Laboratories) was used and detection was performed using the streptavidin-biotin-horse-radish peroxidase complex system (Vector Laboratories) in combination with diaminobencidine. Slides were counterstained with toluidine blue using standard procedures. The same procedure in the absence of the primary antibody was performed as a negative control. As a positive control to test the Preservation of the tissue was verified with an antibody specific for the protein Patched1 (Santa Cruz Biotechnology). Patched1 was used as positive control since it stains all relevant brain structures and is not affected by stress or antidepressants.
At the end of the experiment, the mice were sacrificed and the brains were examined to confirm the location and efficiency of the siRNA injections. For this purpose the brains were cut into sections and the slides were stained by immunohistochemistry using the above mentioned protocols. […]

mice = test: Porsolt's forced swim test; assay type: in vivo, mouse
Protocol: Further validation of role of P2X7R in affective disorders was performed by examining its expression pattern in response to stress and treatment with antidepressant drugs. […] In parallel, a control group of mice was given vehicle solution (i.e. without paroxetine) using the same treatment regiment while a second control group of mice was left undisturbed and stress-free (i.e. untreated) during the same period of the experiments. At the end of the long-term treatment, part of the mice of each experimental group were tested in the dark/light box (test of anxiety behaviour) and in the Porsolt's forced swim test (test of depressive-like behaviour) to confirm the effectiveness of the treatment (FIG. 5). […] The other part of the experimental groups (i.e. mice without test experience) were decapitated, brains rapidly removed and frozen at −80° C. until usage.
The effects of P2X7R inhibition on depressive-like behaviour was assessed 24 hours and 48 hours after infusion of siRNA, control or vehicle according to the standard test paradigm, the Porsolt's forced swim test (Porsolt et al., Arch. Int. Pharmacodym. 229 (1977), 327-336; Porsolt, Rev. Neurosci. 11 (2000), 53-58). […] Compared to vehicle application, no influence of control double stranded RNA (5′-[…]-3′) on floating behaviour (passive stress coping) was detected. […] This interpretation becomes moreover evident when the effects of antidepressants on passive stress coping behaviour in the forced swim test are visualized (FIG. 5). Passive stress coping behaviour increased after acute intrahippocampal injection (bilateral, dentate gyrus) of siRNA targeting P2X7R. The Porsolt's forced swim test is a standard test used to assess the effectiveness of antidepressants and it has been proven by many studies that the test is selectively sensitive for these effects, given that the right animal model is used. The paradigm has been widely used to test pharmaceutical compounds and to validate animal models of depression, which show an increase in passive behaviour as do the mice where P2X7R has been inhibited (siRNA).
The forced swim test is a standard test that measures primary stress-induced reductions in avoidance or escape, termed behavioural despair. The test is used to determine the effectiveness of antidepressants, test new pharmaceutical compounds and validate animal models of depression (Porsolt et al., Arch. Int. Pharmacodym. 229 (1977), 327-336; Porsolt, Rev. Neurosci. 11 (2000), 53-58; Rénéric et al., Behav. Brain Res. 136 (2002), 521-532; Page et al., Psychopharmacology 165 (2003), 194-201; Kelliher et al., Psychoneuroendocrinology 28 (2003), 332-347). The test consists of placing a mouse for a period of 5 minutes into a glass cylinder containing water. Under such circumstances, the mouse cannot touch the bottom of the cylinder and is thus forced to swim. Time, latency and frequency of struggling versus floating are scored as behavioural parameters. […] Increased struggling (i.e. active attempts to escape) indicates active coping behaviour that can be interpreted as an improvement of depression-like symptoms. For example, treatment with serotonergic antidepressants reduce the total time spent floating (Borsini, Neurosci. Biobehav. Rev. 19 (1995), 377-395; Redrobe and Bourin, Psychopharmacology 138 (1998), 198-206, and in parallel increases the time of active behaviour (i.e. swimming or struggling; Lucki et al., Psychopharmacology 155 (2001), 315-322).
The behaviour of individual mice was assessed using the Porsolt's forced swim test 24 hours after injection of vehicle solution, KN-62, or oATP. A pre-exposure of 5 minutes to the test was performed 15-17 minutes after administration of vehicle, KN-62, or oATP. A description of the Porsolt's forced swim test is given in example 9. […]

P2X7R [3] = settings: cited from earlier work
other P2X receptors = settings: cited from earlier work
[4] = 100 nM KN-62 or 10 μM oATP, 1 μl each side, dentate gyrus, 24 hours after injection, DBA/201a mice

Compound: CC(C)NC[C@@H](O)COc1cccc2ccccc12 [D-propanolol]
- opening of the cation channel activity of P2X7R (P2X7R [1]): without affecting
- pore-forming activity of P2X7R (P2X7R [1]): inhibit the pore-forming activity

Compound: NC(=O)N1C(=O)/C(=C(\O)c2cccs2)c2cc(Cl)ccc21 [tenidap, 5-chloro-2,3-dihydro-2-oxo-3-(2-thienylcarbonyl)-indole-1-carboxamide]
- calcium influx (Fluo-4 AM fluorescence intensity) (human P2X7R): rapid increase in fluorescence intensity

Compound: CC(CCc1ccccc1)NCC(O)c1ccc(O)c(C(N)=O)c1 (stereo not drawn) [labetolol]
- opening of the cation channel activity of P2X7R (P2X7R [1]): without affecting
- pore-forming activity of P2X7R (P2X7R [1]): inhibit the pore-forming activity

Compound: P2X7R specific siRNA: double stranded siRNA, 5′-GUGGGUCUUGCACAUGAUCTT-3′ and 5′-GAUCAUGUGCAAGACCCACTT-3′ annealed (chemistry not given here)
- local inflammation or infiltration at the hippocampus (P2X7R [2]; mouse, in vivo): did not produce any sign of local inflammation or infiltration
- inhibition of P2X7R protein expression (P2X7R [2]; siRNA injected near the dentate gyrus, compared to vehicle or control double stranded RNA): 80%
- floating behaviour (passive stress coping) in the forced swim test (mice; intrahippocampal bilateral (dentate gyrus), 0.1 nmol/μl, 1 μl per side, 24 hours and 48 hours after infusion): significant increase in passive behaviour

Compound: Fc1ccc([C@@H]2CCNC[C@H]2COc2ccc3c(c2)OCO3)cc1 [paroxetine]
- passive stress coping behaviour (floating) in the forced swim test (mice; paroxetine by gavage, 10 mg/kg bodyweight twice per day, 28 days, male mice): decreased

Compound: CN([C@@H](Cc1ccc(OS(=O)(=O)c2cccc3cnccc23)cc1)C(=O)N1CCN(c2ccccc2)CC1)S(=O)(=O)c1cccc2cnccc12 [KN-62, 1-(N,O-bis[5-isoquinolinesulphonyl]-N-methyl-L-tyrosyl)-4-phenylpiperazine]
- active escape attempts (time, frequency, latency of struggling) in the forced swim test (mice; [4]): no changes
- passive behaviour (time, frequency, latency of floating) in the forced swim test (mice; [4]): no changes

Compound: Nc1ncnc2c1ncn2[C@@H]1O[C@H](COP(=O)(O)OP(=O)(O)OP(=O)(O)O)[C@@H](O)[C@H]1O [ATP]
- levels of ATP required to achieve activation of P2X7R (P2X7R [3]): > 1 mM
- ATP concentrations at which other P2X receptors activate (other P2X receptors): ≤ 100 µM

Compound: CC(C)NCC(O)COc1cccc2ccccc12 (racemic) [DL-propanolol]
- opening of the cation channel activity of P2X7R (P2X7R [1]): without affecting
- pore-forming activity of P2X7R (P2X7R [1]): inhibit the pore-forming activity

Source: patent US7767398B2, “Means and methods for diagnosing and treating affective disorders” (Affectis Pharmaceuticals AG, priority 2003, dated 2010)
